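Five concentrations, 48 hours, 96-well plates. GI50: concentration for 50% inhibition of growth. Definition used: TGI = concentration required for complete inhibition of growth.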
Columns and labels:
Test in all cases: inhibition of tumour cell growth, NCI panel, 48 h
786-0 renal = system: 786-0 renal
ACHN renal = system: ACHN renal
UACC-257 melanoma = system: UACC-257 melanoma
SF-295 CNS = system: SF-295 CNS
MOLT-4 leukemia = system: MOLT-4 leukemia
NCI-H23 lung = system: NCI-H23 lung
COLO 205 colon = system: COLO 205 colon
HOP-18 NSCLC = system: HOP-18 NSCLC
IGROV1 ovarian = system: IGROV1 ovarian
SN12C renal = system: SN12C renal

Cc1cc(Cl)cc2c1NC(=O)C2=O (tested in a mixture with another compound)
TGI (786-0 renal): > 100 µM
TGI (ACHN renal): > 100 µM
TGI (UACC-257 melanoma): 51.1 µM
TGI (SF-295 CNS): > 100 µM
TGI (MOLT-4 leukemia): 54.7 µM
TGI (NCI-H23 lung): > 100 µM
TGI (COLO 205 colon): > 100 µM
TGI (HOP-18 NSCLC): > 100 µM
TGI (IGROV1 ovarian): > 100 µM
TGI (SN12C renal): > 100 µM

Cc1ccc(NC(=O)CC(=O)N2N=C(N(CCC#N)c3cccc(C)c3)CC2c2ccccc2)cc1 (stereo unspecified)
TGI (786-0 renal): > 100 µM
TGI (ACHN renal): > 100 µM
TGI (UACC-257 melanoma): > 100 µM
TGI (SF-295 CNS): > 100 µM
TGI (MOLT-4 leukemia): > 100 µM
TGI (NCI-H23 lung): > 100 µM
TGI (COLO 205 colon): > 100 µM
TGI (HOP-18 NSCLC): > 100 µM
TGI (IGROV1 ovarian): > 100 µM
TGI (SN12C renal): > 100 µM

Nc1ccc(S(=O)(=O)Nc2cnc3c(Cl)cccc3n2)cc1
TGI (786-0 renal): > 750 µM
TGI (ACHN renal): > 750 µM
GI50 (UACC-257 melanoma): > 89.3 µM
TGI (UACC-257 melanoma): > 750 µM
TGI (SF-295 CNS): 737 µM
GI50 (MOLT-4 leukemia): 65.6 µM
TGI (MOLT-4 leukemia): 565 µM
GI50 (NCI-H23 lung): > 82.4 µM
TGI (NCI-H23 lung): 549 µM
GI50 (COLO 205 colon): > 74.3 µM
TGI (COLO 205 colon): 193 µM
TGI (HOP-18 NSCLC): > 750 µM
GI50 (IGROV1 ovarian): 1.16 µM
TGI (IGROV1 ovarian): > 275 µM
GI50 (SN12C renal): > 81.5 µM
TGI (SN12C renal): > 750 µM

CN1CCc2c1nc(-c1ccc([N+](=O)[O-])cc1)c1c2N(C)CC1
TGI (786-0 renal): > 100 µM
TGI (ACHN renal): > 100 µM
TGI (UACC-257 melanoma): > 100 µM
TGI (SF-295 CNS): > 100 µM
TGI (MOLT-4 leukemia): > 100 µM
TGI (NCI-H23 lung): > 100 µM
TGI (COLO 205 colon): > 100 µM
TGI (HOP-18 NSCLC): > 100 µM
TGI (IGROV1 ovarian): > 100 µM
TGI (SN12C renal): > 100 µM

CCSC(SCC)=C1C(=O)N(c2ccccc2)N=C1C
TGI (786-0 renal): 27 µM
TGI (ACHN renal): 29.4 µM
TGI (UACC-257 melanoma): 18.5 µM
TGI (SF-295 CNS): 73.5 µM
TGI (MOLT-4 leukemia): 23.4 µM
TGI (NCI-H23 lung): 34.9 µM
TGI (COLO 205 colon): 7.08 µM
TGI (HOP-18 NSCLC): 29.4 µM
TGI (IGROV1 ovarian): 33.2 µM
TGI (SN12C renal): 30 µM

COC(=O)/C(=N/NC(N)=O)C(C(=O)OC)C(=O)C(=O)Nc1ccc(Cl)cc1 (stereo unspecified)
TGI (786-0 renal): > 100 µM
TGI (ACHN renal): > 100 µM
TGI (UACC-257 melanoma): > 100 µM
TGI (SF-295 CNS): > 100 µM
TGI (MOLT-4 leukemia): > 100 µM
TGI (NCI-H23 lung): > 100 µM
TGI (COLO 205 colon): > 100 µM
TGI (HOP-18 NSCLC): > 100 µM
TGI (IGROV1 ovarian): > 100 µM
TGI (SN12C renal): > 100 µM

CCCCCCCCCCCCCCCCOC(=O)c1cc(O)cc(C(=O)OCCCCCCCCCCCCCCCC)c1
TGI (786-0 renal): > 100 µM
TGI (ACHN renal): > 100 µM
TGI (UACC-257 melanoma): > 100 µM
TGI (SF-295 CNS): > 100 µM
TGI (MOLT-4 leukemia): > 100 µM
TGI (NCI-H23 lung): > 100 µM
TGI (COLO 205 colon): > 100 µM
TGI (HOP-18 NSCLC): > 100 µM
TGI (IGROV1 ovarian): > 100 µM
TGI (SN12C renal): > 100 µM

CCCCCCCCCCCCCc1nn[nH]n1
TGI (786-0 renal): 31.5 µM
TGI (ACHN renal): 42.2 µM
TGI (UACC-257 melanoma): 35.9 µM
TGI (SF-295 CNS): 34.6 µM
TGI (NCI-H23 lung): 44.6 µM
TGI (COLO 205 colon): 36.6 µM
TGI (HOP-18 NSCLC): 28.2 µM
TGI (IGROV1 ovarian): 41.1 µM
TGI (SN12C renal): 35.9 µM

COc1ccccc1NC(=O)C(CC(C(=O)Nc1ccccc1OC)/C(C)=N/Nc1ccc([N+](=O)[O-])cc1[N+](=O)[O-])/C(C)=N/Nc1ccc([N+](=O)[O-])cc1[N+](=O)[O-] (stereo unspecified)
TGI (786-0 renal): > 100 µM
TGI (ACHN renal): > 100 µM
TGI (UACC-257 melanoma): > 100 µM
TGI (SF-295 CNS): > 100 µM
TGI (MOLT-4 leukemia): > 100 µM
TGI (NCI-H23 lung): > 100 µM
TGI (COLO 205 colon): > 100 µM
TGI (HOP-18 NSCLC): > 100 µM
TGI (IGROV1 ovarian): > 100 µM
TGI (SN12C renal): > 100 µM

O=C(NCCCCCCCNC(=O)OCc1ccc2c(Cl)cc(Cl)c(O)c2n1)OCc1ccc2c(Cl)cc(Cl)c(O)c2n1
GI50 (786-0 renal): 1.4 µM
TGI (786-0 renal): 2.89 µM
GI50 (ACHN renal): 0.26 µM
TGI (ACHN renal): 0.698 µM
GI50 (UACC-257 melanoma): 1.21 µM
TGI (UACC-257 melanoma): 2.6 µM
GI50 (SF-295 CNS): 1.73 µM
TGI (SF-295 CNS): 3.41 µM
GI50 (MOLT-4 leukemia): 0.367 µM
TGI (MOLT-4 leukemia): 2 µM
GI50 (NCI-H23 lung): 1.49 µM
TGI (NCI-H23 lung): 3.2 µM
GI50 (COLO 205 colon): 0.564 µM
TGI (COLO 205 colon): 2 µM
GI50 (IGROV1 ovarian): 0.561 µM
TGI (IGROV1 ovarian): 1.41 µM
GI50 (SN12C renal): 0.774 µM
TGI (SN12C renal): 2.17 µM

CCOc1ccc(C(CN2CCOCC2)C(C)=O)cc1OC (stereo unspecified)
TGI (786-0 renal): 15.7 µM
TGI (ACHN renal): 27.3 µM
TGI (UACC-257 melanoma): 45.8 µM
TGI (SF-295 CNS): > 100 µM
TGI (MOLT-4 leukemia): > 100 µM
TGI (NCI-H23 lung): 32.9 µM
TGI (COLO 205 colon): 19.6 µM
TGI (HOP-18 NSCLC): 30.2 µM
TGI (IGROV1 ovarian): 49.6 µM
TGI (SN12C renal): 31.2 µM

COC(=O)CC(C(C(C)=O)C(=O)OCc1ccccc1)N1C(=O)OCC1c1ccccc1 (stereo unspecified)
TGI (786-0 renal): > 100 µM
TGI (ACHN renal): > 100 µM
TGI (UACC-257 melanoma): > 100 µM
TGI (SF-295 CNS): > 100 µM
TGI (MOLT-4 leukemia): > 100 µM
TGI (NCI-H23 lung): > 100 µM
TGI (COLO 205 colon): > 100 µM
TGI (IGROV1 ovarian): > 100 µM
TGI (SN12C renal): > 100 µM

CC(NC(=O)c1ccccc1)(C(=O)O)C(=O)O
TGI (786-0 renal): > 100 µM
TGI (ACHN renal): > 100 µM
TGI (UACC-257 melanoma): > 100 µM
TGI (SF-295 CNS): > 100 µM
TGI (MOLT-4 leukemia): > 100 µM
TGI (NCI-H23 lung): > 100 µM
TGI (COLO 205 colon): > 100 µM
TGI (IGROV1 ovarian): > 100 µM
TGI (SN12C renal): > 100 µM

O=S(=O)(c1ccc(O)c(C=Nc2ccc(Cl)cc2)c1)c1ccc(O)c(C=Nc2ccc(Cl)cc2)c1
TGI (786-0 renal): > 100 µM
TGI (ACHN renal): > 100 µM
TGI (UACC-257 melanoma): > 100 µM
TGI (SF-295 CNS): > 100 µM
TGI (MOLT-4 leukemia): > 100 µM
TGI (NCI-H23 lung): > 100 µM
TGI (COLO 205 colon): > 100 µM
TGI (HOP-18 NSCLC): > 100 µM
TGI (IGROV1 ovarian): > 100 µM
TGI (SN12C renal): > 100 µM

Source: PubChem BioAssay (NCI)
